As a reminder, the Tmax is the time from dosing to the highest level. A word on the half-life: it is the time in which the quantity being followed falls by half. For orientation: AUC(0-t) means the area under the concentration-time curve up to a stated or last time point. Usually Cmax stands for the peak of the concentration-time curve.

“Also recorded” adds a separate entry of the source. Read-outs that look alike come from different tables or passages of the source.

Series [1] is described as follows: Steady-state plasma pharmacokinetics, open-label randomized three-way crossover study, drugs alone or in combination. As to conditions: for Tmax / half-life / AUC(0-t) / Cmax: human, in vivo; for effect of amantadine coadministration on PK (in words): oseltamivir 75 mg BID + amantadine 100 mg BID.
On the set-up of series [2]: method as in Symmetrel package insert. As to conditions: ref Symmetrel package insert, cited from earlier work.
In series [3] the test system is cytochrome P450 isoforms. Further details: method as in Tamiflu package insert. As to conditions: ref Tamiflu package insert; cited from earlier work.
The conditions of series [4]: cited from earlier work; for mean Cmax: twice daily oral dosing with 75 mg oseltamivir capsule; for mean Cmax / AUC0-12: ref Oseltamivir package insert; for AUC0-12: values reported earlier, 75 mg oseltamivir twice daily.
The test system of series [5] is recombinant amantadine sensitive A/Vietnam/1203/04 (H5N1) virus. As to conditions: mice, lethal challenge, equivalent human therapeutic doses, ref Ilyushina, in press; cited from earlier work.
A short description of series [6]: Safety and tolerability (adverse events) in the crossover study. As to conditions: eight adverse events in total during the trial; 17 subjects.
The test system of series [7] is all strains of influenza A and B tested, including H5N1. As to conditions: no reference given; cited from earlier work.
Where [8] appears, read: under fasted conditions, ref Tamiflu package insert.
Setting [9] is: under fed conditions, ref Tamiflu package insert.
The mark [10] stands for this setting: oseltamivir carboxylate, combination therapy with amantadine 100 mg BID.
Where [11] appears, read: oseltamivir carboxylate, oseltamivir monotherapy 75 mg BID.
The mark [12] stands for this setting: oseltamivir, combination therapy with amantadine 100 mg BID.
Where [13] appears, read: oseltamivir, oseltamivir monotherapy 75 mg BID.

Consider `CC(=O)NC12CC3CC(CC(C3)C1)C2` [Acetylamantadine, acetylamantadine], for which the “detection of acetylamantadine in plasma” value is “not detected” in series [1] (current study, seventeen volunteers, LLOQ approximately 5.00 ng/mL) and “not detected” in series [2] (remaining seven of 12 volunteers). Further, the “plasma acetylamantadine as share of the concurrent amantadine plasma concentration” value in series [2] (5 of 12 healthy volunteers, 200 mg dose of amantadine) is recorded as “up to 80%”. For the same compound, the “N-acetylated metabolite in human urine, share of the administered dose” value in series [2] was 5-15%.
In the case of `CCC(CC)O[C@@H]1C=C(C(=O)O)C[C@H](N)[C@H]1NC(C)=O` [Oseltamivir carboxylate, oseltamivir carboxylate], the “substrate for, or inhibitor of, cytochrome P450 isoforms” value in series [3] is “Neither oseltamivir nor oseltamivir carboxylate is a substrate for, or inhibitor of, cytochrome P450 isoforms; also recorded: Neither oseltamivir nor oseltamivir carboxylate is a substrate for”. Further, in series [4] (oral oseltamivir phosphate, ref Tamiflu package insert), the “share of an oral dose reaching the systemic circulation as oseltamivir carboxylate” value is “At least 75%”. In series [4], the “mean Cmax” value is reported as 348 ng/mL and the AUC0-12 is 2719 ng·h/mL. In series [4] (setting [8]), the “area under the plasma concentration time curve” value is 6218 ng·h/mL and the peak plasma concentration is on record as 551 ng/mL. Besides, in series [4] (setting [9]), the “area under the plasma concentration time curve” value is 6069 ng·h/mL and the peak plasma concentration was 441 ng/mL. Also, in series [1], the time to peak (Tmax) was 3.07 h, the half-life is 6.15 h and the “effect of amantadine coadministration on PK (in words)” value is reported as “did not meaningfully affect”. In addition, in series [1] (75 mg), the AUC(0-t) came out at 3430 ng·h/mL, the maximum concentration (Cmax) was 407 ng/mL, the Tmax turned out to be 3.22 h and the half-life was 6.09 h. In addition, in series [1] (setting [10]), the “apparent clearance, geometric mean” value was determined as 22.3 L/h and the “apparent distribution volume, geometric mean” value (“apparent distribution volume” for short) came to 197 L. In series [1] (setting [11]), the “apparent clearance, geometric mean” value is 21.9 L/h and the “apparent distribution volume” value came to 192 L.
In the case of `CCOC(=O)C1=C[C@@H](OC(CC)CC)[C@H](NC(C)=O)[C@@H](N)C1` [Oseltamivir, oseltamivir, reference compound], in series [3], the “substrate for, or inhibitor of, cytochrome P450 isoforms” value was “Neither oseltamivir nor oseltamivir carboxylate is a substrate for, or inhibitor of, cytochrome P450 isoforms; also recorded: Neither oseltamivir nor oseltamivir carboxylate is a substrate for”. Also, the “animals protected from mortality” value in series [5] is given as 20%. In addition, the “exposure to oseltamivir as share of the total exposure” value in series [4] (after oral dosing, ref Tamiflu package insert) is given as “less than 5%”. Also, in series [4] (ref Tamiflu package insert), the “share of absorbed oseltamivir eliminated by conversion to oseltamivir carboxylate” value is over 90%. In addition, in series [4], the “mean Cmax” value is 65.2 ng/mL and the AUC0-12 is 112 ng·h/mL. For the same compound, in series [1], the time to peak (Tmax) was found to be 0.85 h, the half-life was 1.83 h and the “effect of amantadine coadministration on PK (in words)” value is “did not meaningfully affect”. Moreover, in series [1] (75 mg), the AUC(0-t) was determined as 161 ng·h/mL, the Cmax stood at 60.2 ng/mL, the time to peak (Tmax) came out at 0.76 h and the half-life is 1.85 h. Also, in series [1] (setting [12]), the “apparent clearance, geometric mean” value stood at 505 L/h and the “apparent distribution volume” value was 1329 L. In addition, in series [1] (setting [13]), the “apparent clearance, geometric mean” value was 465 L/h and the “apparent distribution volume” value was determined as 1245 L. The “number of adverse events reported, all mild” value in series [6] is on record as “three”. In series [7], the “effectiveness (in words)” value is “effective against all strains of influenza A and B tested, including H5N1”.

These data come from PMC2110886 (PLoS ONE, 2007).
